# Experiments:
# P. aeruginosa [1] = assay: in vitro antibacterial experiment of TCNH eye drop; assay type: cell-based, Pseudomonas aeruginosa
# Text: (§1) The TCNH eye drop prepared in the above embodiment was used in in vitro antibacterial experiments for Escherichia coli (E. coli), P. aeruginosa, drug-resistant P. aeruginosa, and Candida albicans (C. albicans) and in vivo prevention and treatment experiments for corneal infections caused by P. aeruginosa and drug-resistant P. aeruginosa.
# (§2) FIG. 4 to FIG. 6 show results of the in vitro antibacterial experiments of the TCNH eye drop.
# [2] = test system: drug-resistant P. aeruginosa; assay: in vitro antibacterial experiment of TCNH eye drop; assay type: cell-based, Pseudomonas aeruginosa
# Text: as §1, §2
# [3] = test system: Candida albicans (C. albicans); assay: in vitro antibacterial experiment of TCNH eye drop; assay type: cell-based
# Text: as §1, §2
# [4] = test system: Escherichia coli (E. coli); assay: in vitro antibacterial experiment of TCNH eye drop; assay type: cell-based
# Text: as §1, §2
# P. aeruginosa [5] = assay: in vivo antibacterial experiment, corneal infection (P. aeruginosa); settings: FIGS. 7A-7B
# Text: as §1
# P. aeruginosa [6] = settings: P. aeruginosa isolated from the ocular surface; cited from earlier work
# [7] = test system: drug-resistant P. aeruginosa strain; assay: in vivo antibacterial experiment, corneal infection (drug-resistant P. aeruginosa strain); settings: FIGS. 8A-8B
# Text: as §1
compound,measurement,setting,value
"OO [H2O2, hydrogen peroxide]",bacterial colonies on plates (plate experiment),P. aeruginosa [1]; FIG. 4,overgrown with bacteria
same,live bacteria stained green / dead bacteria stained red,P. aeruginosa [1]; FIG. 5,a large number of live bacteria stained green and a small number of dead bacteria stained red
same,bacterial morphology under a scanning electron microscope,P. aeruginosa [1]; FIG. 6,regular and intact morphology
same,bacterial colonies on plates (plate experiment),[2]; FIG. 4,overgrown with bacteria
same,live bacteria stained green / dead bacteria stained red,[2]; FIG. 5,a large number of live bacteria stained green and a small number of dead bacteria stained red
same,bacterial morphology under a scanning electron microscope,[2]; FIG. 6,regular and intact morphology
same,bacterial colonies on plates (plate experiment),[3]; FIG. 4,overgrown with bacteria
same,live bacteria stained green / dead bacteria stained red,[3]; FIG. 5,a large number of live bacteria stained green and a small number of dead bacteria stained red
same,bacterial morphology under a scanning electron microscope,[3]; FIG. 6,regular and intact morphology
same,bacterial colonies on plates (plate experiment),[4]; FIG. 4,overgrown with bacteria
same,live bacteria stained green / dead bacteria stained red,[4]; FIG. 5,a large number of live bacteria stained green and a small number of dead bacteria stained red
same,bacterial morphology under a scanning electron microscope,[4]; FIG. 6,regular and intact morphology
same,corneal infection,P. aeruginosa [5],obviously infected
CC(C)(O/N=C(\C(=O)N[C@@H]1C(=O)N2C(C(=O)[O-])=C(C[n+]3ccccc3)CS[C@H]12)c1csc(N)n1)C(=O)O [ceftazidime],average resistance rate of P. aeruginosa to the antibiotic,P. aeruginosa [6],13%
O=C(O)c1cn(C2CC2)c2cc(N3CCNCC3)c(F)cc2c1=O [ciprofloxacin],average resistance rate of P. aeruginosa to the antibiotic,P. aeruginosa [6],9%
NC[C@H]1O[C@H](O[C@H]2[C@H](O)[C@@H](O[C@H]3O[C@H](CO)[C@@H](O)[C@H](N)[C@H]3O)[C@H](N)C[C@@H]2N)[C@H](N)C[C@@H]1O [tobramycin],corneal infection,[7],significant infection
gentamicin,corneal infection,[7],significant infection
same,average resistance rate of P. aeruginosa to the antibiotic,P. aeruginosa [6],22%
